Results from ChEMBL document CHEMBL3885881, “DrugMatrix”.

Species on record: Rattus norvegicus
Assay: DrugMatrix - Regimen: Daily Repeat
Type: toxicity, organism-based, Sprague-Dawley
Set-up: regimen Daily Repeat, gender Male, age 6-8 weeks
Conditions: in vivo, po, 1402 mg/kg, route oral GAVAGE, dose level High, vehicle 100 % WATER; for ABSOLUTE BASOPHIL / ABSOLUTE EOSINOPHIL / ABSOLUTE LYMPHOCYTE / ABSOLUTE MONOCYTE / ABSOLUTE SEGMENTED NEUTROPHIL / BASOPHIL / EOSINOPHIL / ERYTHROCYTE COUNT / HEMATOCRIT / HEMOGLOBIN / LEUKOCYTE COUNT / LYMPHOCYTE / MEAN CORPUSCULAR HEMOGLOBIN / MEAN CORPUSCULAR HEMOGLOBIN CONCENTRATION / MEAN CORPUSCULAR VOLUME / MONOCYTE / NEUTROPHIL / NUCLEATED RED BLOOD CELLS / PLATELET COUNT: tissue Blood; for ALANINE AMINOTRANSFERASE / ALBUMIN / ALKALINE PHOSPHATASE / ASPARTATE AMINOTRANSFERASE / BLOOD UREA NITROGEN / CARBON DIOXIDE / CHLORIDE / CHOLESTEROL / CREATINE PHOSPHOKINASE / CREATININE / GLUCOSE / LACTATE DEHYDROGENASE / LIPASE / PHOSPHORUS / POTASSIUM / SODIUM / TOTAL BILIRUBIN / TOTAL PROTEIN / URIC ACID: tissue Plasma

Structure (SMILES): C[C@H](CCC(=O)O)[C@H]1CC[C@H]2[C@@H]3[C@H](O)C[C@@H]4C[C@H](O)CC[C@]4(C)[C@H]3C[C@H](O)[C@]12C [CHOLIC ACID]
- ABSOLUTE BASOPHIL (72 h, time 3 day): 0 CELLS/uL
- ABSOLUTE EOSINOPHIL (72 h, time 3 day): 95.33 CELLS/uL
- ABSOLUTE LYMPHOCYTE (72 h, time 3 day): 13410.67 CELLS/uL
- ABSOLUTE MONOCYTE (72 h, time 3 day): 0 CELLS/uL
- ABSOLUTE SEGMENTED NEUTROPHIL (72 h, time 3 day): 960.67 CELLS/uL
- BASOPHIL (72 h, time 3 day): 0%
- EOSINOPHIL (72 h, time 3 day): 0.67%
- ERYTHROCYTE COUNT (72 h, time 3 day): 5.62 x10E6/uL
- HEMATOCRIT (72 h, time 3 day): 34.5%
- HEMOGLOBIN (72 h, time 3 day): 13.7 G/DL
- LEUKOCYTE COUNT (72 h, time 3 day): 14.47 x10E3/uL
- LYMPHOCYTE (72 h, time 3 day): 92.67%
- MEAN CORPUSCULAR HEMOGLOBIN (72 h, time 3 day): 24.47 pg
- MEAN CORPUSCULAR HEMOGLOBIN CONCENTRATION (72 h, time 3 day): 39.8 G/DL
- MEAN CORPUSCULAR VOLUME (72 h, time 3 day): 61.47 fL
- MONOCYTE (72 h, time 3 day): 0%
- NEUTROPHIL (72 h, time 3 day): 6.67%
- NUCLEATED RED BLOOD CELLS (72 h, time 3 day): 0 /100WBC
- PLATELET COUNT (72 h, time 3 day): 1053.33 x10E3/uL
- ALANINE AMINOTRANSFERASE (72 h, time 3 day): 55.33 u/L
- ALBUMIN (72 h, time 3 day): 4.17 G/DL
- ALKALINE PHOSPHATASE (72 h, time 3 day): 359.33 u/L
- ASPARTATE AMINOTRANSFERASE (72 h, time 3 day): 84.67 u/L
- BLOOD UREA NITROGEN (72 h, time 3 day): 16 mg/dL
- CARBON DIOXIDE (72 h, time 3 day): 32 mmol/L
- CHLORIDE (72 h, time 3 day): 101.67 MEQ/L
- CHOLESTEROL (72 h, time 3 day): 91.33 mg/dL
- CREATINE PHOSPHOKINASE (72 h, time 3 day): 224 u/L
- CREATININE (72 h, time 3 day): 0.19 mg/dL
- GLUCOSE (72 h, time 3 day): 152 mg/dL
- LACTATE DEHYDROGENASE (72 h, time 3 day): 124.33 u/L
- LIPASE (72 h, time 3 day): 9.67 u/L
- PHOSPHORUS (72 h, time 3 day): 12.63 mg/dL
- POTASSIUM (72 h, time 3 day): 7.15 MEQ/L
- SODIUM (72 h, time 3 day): 144.2 MEQ/L
- TOTAL BILIRUBIN (72 h, time 3 day): 0.2 mg/dL
- TOTAL PROTEIN (72 h, time 3 day): 5.77 G/DL
- URIC ACID (72 h, time 3 day): 1.93 mg/dL
- ABSOLUTE BASOPHIL (120 h, time 5 day): 0 CELLS/uL
- ABSOLUTE EOSINOPHIL (120 h, time 5 day): 0 CELLS/uL
- ABSOLUTE LYMPHOCYTE (120 h, time 5 day): 13701.33 CELLS/uL
- ABSOLUTE MONOCYTE (120 h, time 5 day): 565.67 CELLS/uL
- ABSOLUTE SEGMENTED NEUTROPHIL (120 h, time 5 day): 1233 CELLS/uL
- BASOPHIL (120 h, time 5 day): 0%
- EOSINOPHIL (120 h, time 5 day): 0%
- ERYTHROCYTE COUNT (120 h, time 5 day): 5.73 x10E6/uL
- HEMATOCRIT (120 h, time 5 day): 34.97%
- HEMOGLOBIN (120 h, time 5 day): 13.73 G/DL
- LEUKOCYTE COUNT (120 h, time 5 day): 15.5 x10E3/uL
- LYMPHOCYTE (120 h, time 5 day): 88.67%
- MEAN CORPUSCULAR HEMOGLOBIN (120 h, time 5 day): 24 pg
- MEAN CORPUSCULAR HEMOGLOBIN CONCENTRATION (120 h, time 5 day): 39.3 G/DL
- MEAN CORPUSCULAR VOLUME (120 h, time 5 day): 60.97 fL
- MONOCYTE (120 h, time 5 day): 3.67%
- NEUTROPHIL (120 h, time 5 day): 7.67%
- NUCLEATED RED BLOOD CELLS (120 h, time 5 day): 0.67 /100WBC
- PLATELET COUNT (120 h, time 5 day): 1207 x10E3/uL
- ALANINE AMINOTRANSFERASE (120 h, time 5 day): 112 u/L
- ALBUMIN (120 h, time 5 day): 4.27 G/DL
- ALKALINE PHOSPHATASE (120 h, time 5 day): 330 u/L
- ASPARTATE AMINOTRANSFERASE (120 h, time 5 day): 171 u/L
- BLOOD UREA NITROGEN (120 h, time 5 day): 16.33 mg/dL
- CARBON DIOXIDE (120 h, time 5 day): 30.33 mmol/L
- CHLORIDE (120 h, time 5 day): 101.67 MEQ/L
- CHOLESTEROL (120 h, time 5 day): 94.33 mg/dL
- CREATINE PHOSPHOKINASE (120 h, time 5 day): 383.67 u/L
- CREATININE (120 h, time 5 day): 0.27 mg/dL
- GLUCOSE (120 h, time 5 day): 120.67 mg/dL
- LACTATE DEHYDROGENASE (120 h, time 5 day): 380.33 u/L
- LIPASE (120 h, time 5 day): 12 u/L
- PHOSPHORUS (120 h, time 5 day): 12.13 mg/dL
- POTASSIUM (120 h, time 5 day): 7.47 MEQ/L
- SODIUM (120 h, time 5 day): 144.4 MEQ/L
- TOTAL BILIRUBIN (120 h, time 5 day): 0.2 mg/dL
- TOTAL PROTEIN (120 h, time 5 day): 6.23 G/DL
- URIC ACID (120 h, time 5 day): 2.1 mg/dL
